Like-named read-outs stand apart in the source and are kept apart here. Each block holds one compound with its values, some of them ahead of it.
Legend:
[1] = tested on: Entamoeba histolytica HK-9 strain; assay: In vitro antiamoebic activity (parasite count, trypan blue); assay type: cell-based; settings: 72 hours at 36-37 °C, six determinations, read-out: Mean IC50 ± SD, Entamoeba histolytica
Experimental: (§1) Entamoeba histolytica HK-9 strain (ATCC number 30015) was cultured in LYI-S-2 medium supplemented with antibiotics. Giardia intestinalis WB strain (ATCC number 30957) was grown in a modified YI-S medium with antibiotics. Both parasites were cultivated in 15-mL screw-capped borosilicate glass tubes containing 13 mL medium. The tubes were incubated on a 15º horizontal slant at (36-37) ºC. Culture maintenance and subculturing was performed as described Entamoeba and Giardia were harvested from confluent cultures by chilling of the tubes on ice for 5-10 min. to detach cells, followed by centrifugation at 800 x g for 5 min.
(§2) Two milligrams of a test compound or a mixture were dissolved in 10 µL of dimethyl sulfoxide (DMSO) and completed with 1 mL growth medium. The solutions were filter sterilized using 0.22 µm syringe filters and the appropriate volumes of the solutions were taken to prepare the concentrations of each compound or reference drug in 15-mL screw-capped borosilicate glass tubes. […] For the control mixtures of the precursor compounds, 1:1 molar ratios were prepared. Each tube was inoculated with 20,000 cells of the parasite under testing (Entamoeba or Giardia). Each compound or mixture was assayed in duplicate in each of three independent experiments. In each assay, the appropriate controls were performed, including the one without any compound or mixture and another with metronidazole as the positive control. The caps of Entamoeba and Giardia tubes were tightly screwed and wrapped with Parafilm. The tubes were incubated on a 15º horizontal slant at 36-37 °C for 72 hours.
(§3) The parasites in each tube were counted using the standard hemacytometer at the 10X objective. In each count, trypan blue was employed to distinguish live from dead parasites. To permit detachment of Entamoeba and Giardia, the tubes were placed on ice for few minutes and the parasites were then centrifuged at 1000 x g for 10 min. The supernatant was discarded and 1 mL fresh medium was added to each tube. The final suspension was prepared by mixing 25 µL of the parasite suspension in each tube with 100 µL of 0.4 % trypan blue in phosphate buffered saline (PBS). The 50% inhibitory concentration (IC50) was employed as a parameter for biological activity. The IC50 is the concentration of compounds which cuts the number of parasites to half that in the negative control (growth medium + DMSO + parasites).

[2] = tested on: Giardia intestinalis WB strain; assay: In vitro antigiardial activity (parasite count, trypan blue); assay type: cell-based; settings: 72 hours at 36-37 °C, six determinations, read-out: Mean IC50 ± SD, Giardia intestinalis
Experimental: as §1, §2, §3

Hep-2 cells = assay: cells; assay type: cell-based; settings: for IC50: 48 hour incubation, six determinations, read-out: Mean IC50 ± SD, Hep-2 cells
Experimental: (§4) The cytotoxicity of the hybrid compounds and the reference drug, metronidazole, was investigated on Hep-2 and Vero cells using the standard cytotoxicity assay and the trypan blue exclusion method. A cell suspension (10^5 cells/mL RPMI medium-10% inactivated foetal calf serum) was prepared from confluent cultures and 100 µL portions of the suspension were added to the wells of 96-well plates. The cells were incubated for 24 h at 37 °C and 5 % CO2 and the medium in each well was then replaced with fresh 150 µL medium. Solutions of the compounds or the reference drug were prepared and sterilized as described in “Antiamoebic and antigiardial activity” section above. Then, 150 µL-two fold serial dilutions of each of the compounds and the reference drug starting at a concentration of 2000 µg/mL in culture medium were prepared in the plates. After 48 hour incubation at 37 °C and 5 % CO2, the number of cells in each well was determined as follows: The medium in each well was gently replaced with 100 µL of 0.25% (w/v) trypsin-0.53 mM EDTA solution and the plates were incubated for 5 min. at 37 °C to allow cell detachment. Two-hundred microliters of trypan blue solution were added to each well and the plates were, then, placed on ice. The cells were counted in a hemacytometer at the 10X objective. Each compound was assayed in duplicate in each of three independent experiments. In each assay the negative controls (without any compound or reference drug) were included in duplicates.

Vero cells = assay: Cytotoxicity assay, trypan blue exclusion; assay type: cell-based; settings: 48 hour incubation, six determinations, read-out: Mean IC50 ± SD, Vero cells
Experimental: as §4

[3] = Solubility in DMSO-aqueous medium (bioassay preparation); assay type: physicochemical
Experimental: The antiamoebic and antigiardial activities of the prepared hybrid molecules 8, 10-a, 12, their precursors, and 1:1 mixtures of these precursors were tested as described, with some modifications. […] Two milligrams of a test compound or a mixture were dissolved in 10 µL of dimethyl sulfoxide (DMSO) and completed with 1 mL growth medium. […] For each preparation, concentrations of 240, 120, 60, 30, 15, 7.5, 3.5, 1.7, 0.8, 0.4, 0.2, 0.1 µg/mL medium were prepared in a final volume of 15 mL to exclude air from the tube. For the control mixtures of the precursor compounds, 1:1 molar ratios were prepared. […] Each compound or mixture was assayed in duplicate in each of three independent experiments. In each assay, the appropriate controls were performed, including the one without any compound or mixture and another with metronidazole as the positive control. The caps of Entamoeba and Giardia tubes were tightly screwed and wrapped with Parafilm. The tubes were incubated on a 15º horizontal slant at 36-37 °C for 72 hours.

Compound: Clc1ccc2c(N3CCNCC3)ccnc2c1 [Compound 9, 7-Chloro-4-(piperazine-1-yl) quinoline, reference compound]
- IC50 ([1]; Entamoeba histolytica, 72 h): 55.7 ± 5 µM
- IC50 ([2]; Giardia duodenalis, 72 h): 67.5 ± 8.67 µM

Compound: O=C(/C=C/c1ccc([N+](=O)[O-])o1)N1CCN(c2ccnc3cc(Cl)ccc23)CC1 [Compound 10-a]
- IC50 [1]: 140 ± 6.37 µM
- IC50 ([1]; Entamoeba histolytica, 72 h): ~140 µM
- IC50 [2]: 145 ± 5.37 µM
- IC50 ([2]; Giardia duodenalis, 72 h): ~140 µM
- cytotoxicity at the lethal concentrations against the parasites (Hep-2 cells; Hep-2 and Vero cells): non-cytotoxic
- IC50 (Hep-2 cells; Homo sapiens, HEp-2): 574 ± 7.77 µM
- IC50 (Vero cells; Chlorocebus sabaeus, Vero): 593 ± 8.71 µM

Compound: 3-(5-nitrofuran-2-yl)-N-[2-(5-nitroimidazol-1-yl)ethyl]acrylamide [Compound 8]
- IC50 [1]: 5.32 ± 0.21 µM
- IC50 [2]: 5.56 ± 0.37 µM
- IC50 (Hep-2 cells): 108 ± 8.02 µM
- IC50 (Vero cells): 90.5 ± 7.83 µM

Continued, in another order:

- IC50 ([1]; Entamoeba histolytica, 72 h): 18.2 ± 2.28 µM
- IC50 ([2]; Giardia duodenalis, 72 h): 18.5 ± 1.43 µM
Compound: Cc1ncc([N+](=O)[O-])n1CCN [Compound 6, 2-(2-Methyl-5-1H-nitroimidazolyl)ethylamine, reference compound]

- solubility in DMSO-aqueous medium [3]: insolubility
Compound: O=C(/C=C\c1ccc([N+](=O)[O-])o1)N1CCN(c2ccnc3cc(Cl)ccc23)CC1 [Compound 10-b]

- IC50 ([1]; Entamoeba histolytica, 72 h): 94.3 ± 9.76 µM
- IC50 ([2]; Giardia duodenalis, 72 h): 88.4 ± 7.1 µM
Compound: O=C(O)/C=C/c1ccc([N+](=O)[O-])o1 [Compound 7, 5-Nitro-2-furylacrilic acid, reference compound]

- IC50 ([1]; Entamoeba histolytica, 72 h): 5.2 ± 1.03 µM
- IC50 ([2]; Giardia duodenalis, 72 h): 5.7 ± 0.78 µM
- IC50 (Hep-2 cells; Homo sapiens, HEp-2): 1460 ± 18.3 µM
- IC50 ratio, Hep-2 and Vero cells versus the tested parasites (Hep-2 cells; IC50 against Hep-2 and Vero cells over IC50 against Entamoeba and Giardia): around 270 times
Compound: Cc1ncc([N+](=O)[O-])n1CCO [Metronidazole, metronidazole, reference compound]
- IC50 (Vero cells; Chlorocebus sabaeus, Vero): 1500 ± 17.8 µM

— article PMC6254164, “Synthesis of Novel Hybrid Molecules from Precursors With Known Antiparasitic Activity” (Molecules, 2009)
